Laboratory results: paper PMC9785397, “Exploiting Conserved Quorum Sensing Signals in Streptococcus mutans and Streptococcus pneumoniae” (Microorganisms, 2022)
≈ marks a conversion by molar mass, not a printed value. Counter-ions that a name gives are not always drawn.

Key:
[1] = test system: S. mutans bacteriocin production against S. mitis; test: Bacteriocin overlay assay, S. mutans spotted on S. mitis; assay type: cell-based, Streptococcus mutans; conditions: analog 20 μM with CSP1 20 μM, 16 h, p < 0.05 vs CSP1
Procedure: (§1) During the formation of complex biofilm such as dental plaque, the ability of S. mutans to compete with other commensal species determines the success of the cariogenesis process. S. mutans uses antibacterial peptides, namely, bacteriocins, to overcome and subvert the composition of dental microbiota. We investigated the production of bacteriocins using the overlay assay. Overnight cultures of S. mitis, S. oralis, S. sanguinis, P. aeruginosa, F. nucleatum, or P. gingivalis were diluted 1:100 in BHI or TS broth and incubated at 37 °C until they reached an OD620 of 0.3. Cultures were added with agar (BD Difco^TM Agar) at the final concentration of 1.5% w/v and transferred in plates. Overnight cultures of S. mutans were diluted 1:100 in BHI and added with peptides (20 μM) or the vehicle with or without CSP1. Culture media were supplemented with agar to reach the final concentration of 0.7% w/v. The solutions were spotted on the surface of agar plates prepared as described above. The plates were kept on the benchtop for 30 min, allowing the agar containing S. mutans to solidify, and then incubated at 37 °C for 16 h under microaerophilic or anaerobic conditions, as required.
(§2) Spots (10 for each experimental group) were acquired and analyzed using NIH Image J software (version 1.53t August 2022, https://imagej.nih.gov/ij/index.html; accessed on 7 September 2022). The appearance of a clear area on the plate (bacterial growth inhibition) was evaluated as indicative of bacteriocin activity. The diameters of the area were measured in a blinded fashion.

[2] = test system: comE gene; test: qRT-PCR, comE gene expression; assay type: cell-based, Streptococcus mutans; conditions: analog 20 μM with CSP1 20 μM, planktonic, 8 h, qPCR
Procedure: (§3) S. mutans was cultured in BHI supplemented with peptides or the vehicle. Cultures were centrifuged, and total RNA was isolated and purified from the bacterial pellets using the GRS Total RNA Kit—Bacteria (GK16.0100; GRISP Research Solution, Porto, Portugal), following the manufacturer’s instructions. Purified RNA was subjected to DNase I treatment to remove contaminating DNA. The RNA yield and purity were assessed by measuring the absorbance, and only samples with a ratio of 260/280 nm in the 1.8–2 range were used. cDNA was generated using the cDNA RT kit with an RNAse inhibitor (Applied Biosystems; Monza, Milan). Quantitative PCR (qRT-PCR) was performed using SYBR green mixture (iScript One Step RT-PCR kit; Bio-Rad, Segrate, Milan) to determine the transcript levels of genes using the oligonucleotides listed in Table 3. The gyrA gene served as the housekeeping gene.

[3] = test system: comD gene; test: qRT-PCR, comD gene expression; assay type: cell-based, Streptococcus mutans; conditions: analog 20 μM with CSP1 20 μM, planktonic, 8 h, qPCR
Procedure: as §3

[4] = test system: S. mitis; test: microbe, parasite or virus in culture; assay type: cell-based, Streptococcus mitis; conditions: for Minimum inhibitory concentration (MIC), S. mitis: peptides 0–50 μM, 37 °C, microaerophilic, A620 nm, three separate experiments
Text: (§4) Streptococcus mutans Clarke (strain designation NCTC 10449), Pseudomonas aeruginosa (Schroeter) Migula (strain designation PAO1), Fusobacterium nucleatum, subspecies nucleatum (strain VPI 4355), and Porphyromonas gingivalis (strain 2561) were purchased from ATCC (LGC Standards Srl, Milan, Italy). Streptococcus mitis, Streptococcus oralis, and Streptococcus sanguinis were obtained from clinical isolates and characterized by morphological, biochemical, and molecular typing. S. mutans, S. mitis, S. oralis, and S. sanguinis were maintained in Brain Heart Infusion (BHI) broth or agar under microaerophilic conditions. P. aeruginosa was maintained in trypticase soy (TS) agar or broth. F. nucleatum was maintained in TS agar or broth with defibrinated sheep blood under anaerobic conditions. P. gingivalis was maintained in ATCC Medium 2722 supplemented with TS broth or agar under anaerobic conditions. Before the experiments, bacterial cultures were inoculated in fresh media (dilution 1:100) and grown for 16 h at 37 °C.
(§5) The antimicrobial activities of the tested peptides were assessed through the determination of the minimum inhibitory concentration (MIC) standardized by the Clinical and Laboratory Standards Institute. Bacterial inocula were diluted in 10 mL of MHB […]. The concentration of the bacteria was adjusted to 0.5 McFarland standard, and the bacteria were dispensed in 96-well microtiter plates (final bacterial concentration: 1 × 10^4 CFU/well). Peptides were dissolved in sterile water (stock concentration: 2 mM) and added at final concentrations ranging from 0 to 50 µM. Plates were incubated at 37 °C for 16 h. At the end of incubation, bacterial growth was recorded using a microplate reader (Varioskan Lux Reader; Thermo Fisher Scientific, Milan, Italy) by quantifying the adsorption at 620 nm. Cultures were then opportunely diluted and seeded on agar plates. Bacterial cultures inoculated with the highest final concentration of the vehicle (sterile water) or chlorhexidine hydrochloride salt (CHX, concentration range: 0.05 to 500 μg/mL; Merck, Milan, Italy) were included as controls in each test. Experiments were performed in triplicate.

[5] = test system: S. mutans; test: microbe, parasite or virus in culture; assay type: cell-based, Streptococcus mutans; conditions: for Minimum inhibitory concentration (MIC), S. mutans: peptides 0–50 μM, 37 °C, microaerophilic, A620 nm, three separate experiments
Text: as §4, §5

[6] = test system: P. gingivalis; test: microbe, parasite or virus in culture; assay type: cell-based, Porphyromonas gingivalis; conditions: 16 h; for Minimum inhibitory concentration (MIC), P. gingivalis: peptides 0–50 μM, 37 °C, anaerobic, A620 nm, three separate experiments
Text: as §4, §5

[7] = test system: bip gene; test: qRT-PCR, bip gene expression; assay type: cell-based, Streptococcus mutans; conditions: analog 20 μM with CSP1 20 μM, 8 h, qPCR, p < 0.05 vs CSP1
Procedure: as §3

[8] = test system: P. aeruginosa; test: microbe, parasite or virus in culture; assay type: cell-based, Pseudomonas aeruginosa; conditions: 16 h; for Minimum inhibitory concentration (MIC), P. aeruginosa: peptides 0–50 μM, 37 °C, aerobic, A620 nm, three separate experiments
Text: as §4, §5

[9] = test system: S. mutans bacteriocin production against S. sanguinis; test: Bacteriocin overlay assay, S. mutans spotted on S. sanguinis; assay type: cell-based, Streptococcus mutans; conditions: analog 20 μM with CSP1 20 μM, 16 h, p < 0.05 vs CSP1
Procedure: as §1, §2

[10] = test system: F. nucleatum; test: microbe, parasite or virus in culture; assay type: cell-based, Fusobacterium nucleatum; conditions: 16 h; for Minimum inhibitory concentration (MIC), F. nucleatum: peptides 0–50 μM, 37 °C, anaerobic, A620 nm, three separate experiments
Text: as §4, §5

[11] = test system: S. sanguinis; test: microbe, parasite or virus in culture; assay type: cell-based, Streptococcus sanguinis; conditions: for Minimum inhibitory concentration (MIC), S. sanguinis: peptides 0–50 μM, 37 °C, microaerophilic, A620 nm, three separate experiments
Text: as §4, §5

[12] = test system: S. mutans bacteriocin production against S. oralis; test: Bacteriocin overlay assay, S. mutans spotted on S. oralis; assay type: cell-based, Streptococcus mutans; conditions: analog 20 μM with CSP1 20 μM, 16 h, p < 0.05 vs CSP1
Procedure: as §1, §2

[13] = test system: S. oralis; test: microbe, parasite or virus in culture; assay type: cell-based, Streptococcus oralis; conditions: for Minimum inhibitory concentration (MIC), S. oralis: peptides 0–50 μM, 37 °C, microaerophilic, A620 nm, three separate experiments
Text: as §4, §5

[14] = test system: S. mutans mature biofilm; test: Mature biofilm (crystal violet); assay type: cell-based, Streptococcus mutans; conditions: CHX 0.63 μg/mL added at 48 h, biofilm assessed 24 h later
Procedure: (§6) Overnight cultures of S. mutans were diluted 1:1000 in a 1:10 solution of BHI broth supplemented with 0.2% w/v sucrose and artificial saliva (AS; 1.3 g/L KCl, 0.1 g/L NaCl, 0.05 g/L MgCl, 0.1 g/L CaCl2, 0.5 g/L peptone, 25 μg/L NaF, 27 mg/L KH2PO4, 35 mg/L K2HPO4, pH 6.8; all reagents purchased from Merck). Cultures were seeded into 96-well polystyrene microtiter plates (200 µL/well) and incubated at 37 °C under static conditions. To identify the time of incubation that is useful in obtaining a mature biofilm, plates were incubated for 16, 24, 48, 72, or 96 h. Half of the media was renewed every 24 h. At the end of incubations, the wells were emptied and washed three times with sterile PBS to remove planktonic cells. Adhering cells were incubated with resazurin 0.01% in the dark at 37 °C for 20 min [30]. In metabolically active cells, the non-fluorescent resazurin was reduced to highly fluorescent resorufin by dehydrogenase enzymes. The relative fluorescence units (RFU) of resorufin were measured using a fluorimeter (Ex = 530–570 nm, Em = 590–620 nm; Varioskan Lux Reader; Thermo Fisher Scientific).
(§7) To assess the effect of the compounds on biofilm formation or mature biofilm, cultures of S. mutans were prepared as described above. […] The optical density was measured at 570 nm using a microplate reader (Varioskan Lux Reader; Thermo Fisher Scientific). […]

[15] = test system: S. mutans biofilm formation; test: Biofilm formation (crystal violet); assay type: cell-based, Streptococcus mutans; conditions: CHX 0.63 μg/mL, 72 h, stimuli renewed every 24 h
Procedure: as §6, §7

[16] = CHX, microdilution method and colony counting assay

SMILES	Effect on the CSP1-induced antibacterial effects against S. mitis [1]	Effect on the expression of comE induced by CSP1 [2]	Effect on the expression of comD induced by CSP1 [3]	Minimum inhibitory concentration (MIC), S. mitis ([4]; 16 h)	Minimum inhibitory concentration (MIC), S. mutans ([5]; 16 h)	Minimum inhibitory concentration (MIC), P. gingivalis [6]	Effect on the CSP1-induced expression of bip [7]	Minimum inhibitory concentration (MIC), P. aeruginosa [8]	Effect on the CSP1-induced antibacterial effects against S. sanguinis [9]	Minimum inhibitory concentration (MIC), F. nucleatum [10]	Minimum inhibitory concentration (MIC), S. sanguinis ([11]; 16 h)	Effect on the CSP1-induced antibacterial effects against S. oralis [12]	Minimum inhibitory concentration (MIC), S. oralis ([13]; 16 h)	also measured
CC[C@H](C)[C@H](NC(=O)[C@H](Cc1ccccc1)NC(=O)[C@H](CC(=O)O)NC(=O)[C@H](CCCNC(=N)N)NC(=O)[C@H](Cc1ccccc1)NC(=O)[C@H](Cc1ccccc1)NC(=O)[C@H](CCCCNC(C)=O)NC(=O)[C@H](CO)NC(=O)[C@H](CC(C)C)NC(=O)[C@H](CCCNC(=N)N)NC(=O)[C@H](CCSC)NC(=O)[C@H](CCC(=O)O)NC(C)=O)C(=O)N[C@@H](CC(C)C)C(=O)N[C@@H](CCC(N)=O)C(=O)N[C@@H](CCCNC(=N)N)C(=O)N[C@@H](CCCCNC(C)=O)C(=O)N[C@@H](CCCCNC(C)=O)C(=O)O [Ac4CSP1]	significantly reduced	inhibited the expression	inhibited the expression	28 µM (≈ 67.5 µg/mL)	26 µM (≈ 62.7 µg/mL)	>50 µM	significantly reduced	>50 µM	significantly reduced	>50 µM	25 µM (≈ 60.3 µg/mL)	significantly reduced	23 µM (≈ 55.5 µg/mL)	–
CC[C@H](C)[C@H](NC(=O)[C@H](Cc1ccccc1)NC(=O)[C@H](CC(=O)O)NC(=O)[C@H](CCCNC(=N)N)NC(=O)[C@H](Cc1ccccc1)NC(=O)[C@H](Cc1ccccc1)NC(=O)[C@H](CCCCN)NC(=O)[C@H](CO)NC(=O)[C@H](CC(C)C)NC(=O)[C@H](CCCNC(=N)N)NC(=O)[C@H](CCSC)NC(=O)[C@H](CCC(=O)O)NC(C)=O)C(=O)N[C@@H](CC(C)C)C(=O)N[C@@H](CCC(N)=O)C(=O)N[C@@H](CCCNC(=N)N)C(=O)N[C@@H](CCCCN)C(=O)N[C@@H](CCCCN)C(=O)O [AcCSP1]	significantly reduced	inhibited the expression	inhibited the expression	24 µM (≈ 54.8 µg/mL)	20 µM (≈ 45.7 µg/mL)	>50 µM	significantly reduced	>50 µM	significantly reduced	>50 µM	27 µM (≈ 61.7 µg/mL)	significantly reduced	21 µM (≈ 48 µg/mL)	–
[H]/N=C(\N/C(=N/[H])NCCCCCCNC(=N)NC(=N)Nc1ccc(Cl)cc1)Nc1ccc(Cl)cc1 [CHX, chlorhexidine hydrochloride salt]	–	–	–	–	–	–	–	–	–	–	–	–	–	Reduction of mature biofilm vs. vehicle [14]: 54%; Concentration inducing bactericidal activity, S. mitis [4, 16]: below 1 μg/mL; MIC ([4]; Streptococcus mitis, 16 h, read-out: Minimum inhibitory concentration (MIC), S. mitis): 0.5 µg/mL; Concentration inducing bactericidal activity, S. mutans [5, 16]: below 1 μg/mL; MIC ([5]; Streptococcus mutans, 16 h, read-out: Minimum inhibitory concentration (MIC), S. mutans): 0.63 µg/mL; MIC ([6]; Porphyromonas gingivalis, read-out: Minimum inhibitory concentration (MIC), P. gingivalis): 254 µg/mL; MIC ([8]; Pseudomonas aeruginosa, read-out: Minimum inhibitory concentration (MIC), P. aeruginosa): 1.68 µg/mL; Reduction of biofilm formation vs. vehicle [15]: 70%; MIC ([10]; Fusobacterium nucleatum, read-out: Minimum inhibitory concentration (MIC), F. nucleatum): 300 µg/mL; Concentration inducing bactericidal activity, S. sanguinis [11, 16]: below 1 μg/mL; MIC ([11]; Streptococcus sanguinis, 16 h, read-out: Minimum inhibitory concentration (MIC), S. sanguinis): 0.69 µg/mL; Concentration inducing bactericidal activity, S. oralis [13, 16]: below 1 μg/mL; MIC ([13]; Streptococcus oralis, 16 h, read-out: Minimum inhibitory concentration (MIC), S. oralis): 0.57 µg/mL
